Source: patent US20230399341A1, “7-PHENYL SUBSTITUTED 2-AMINOQUINAZOLINE INHIBITORS OF HPK1” (MERCK SHARP & DOHME LLC, priority 2020, published 2023)

The compounds below were run against T1, Human HPK1, catalytic domain (Homo sapiens, UniProt Q92918) (assay: HPK1-SLP76 TR-FRET Assay). Details: 75 pM HPK1, ATP 10 uM, SLP76 10 nM, 30 min pre-incubation, 60 min reaction.
T1 sequence (Q92918 1-346): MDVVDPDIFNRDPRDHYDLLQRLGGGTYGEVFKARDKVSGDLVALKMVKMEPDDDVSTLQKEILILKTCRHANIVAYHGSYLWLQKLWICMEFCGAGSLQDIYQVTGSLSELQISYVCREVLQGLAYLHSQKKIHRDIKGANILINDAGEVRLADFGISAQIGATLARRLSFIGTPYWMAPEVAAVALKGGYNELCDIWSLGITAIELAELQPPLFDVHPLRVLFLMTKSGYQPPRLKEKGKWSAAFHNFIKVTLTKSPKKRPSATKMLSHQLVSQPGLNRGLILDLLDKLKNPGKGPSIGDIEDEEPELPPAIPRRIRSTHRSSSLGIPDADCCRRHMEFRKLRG
Assay type: biochemical

| Structure (SMILES) | IC50 [nM] |
| --- | --- |
| Cc1c(-c2cc3nc(Nc4ccc5c(c4)CN(C)CC5)ncc3c(N)c2F)cnc2cc[nH]c12 [Compound 2-130, 6-fluoro-7-(7-methyl-1H-pyrrolo[3,2-b]pyridin-6-yl)-N~2~-(2-methyl-1,2,3,4-tetrahydroisoquinolin-7-yl)quinazoline-2,5-diamine] | 0.103 |
| Cc1c(-c2c(F)c(N)c3cnc(Nc4ccc(CS(=O)(=O)C5CC5)cc4)nc3c2Cl)cnc2c1NCCO2 [Compound 2-132, 8-chloro-N2-(4-((cyclopropylsulfonyl)methyl)phenyl)-6-fluoro-7-(8-methyl-2,3-dihydro-1H-pyrido[2,3-b][1,4]oxazin-7-yl)quinazoline-2,5-diamine] | 2.78 |
| Cc1c(-c2c(F)c(N)c3cnc(Nc4ccc(CS(=O)(=O)C(C)C)cc4)nc3c2Cl)cnc2c1NCCO2 [Compound 2-133, (+ and −)-8-chloro-6-fluoro-7-(8-methyl-2,3-dihydro-1H-pyrido[2,3-b][1,4]oxazin-7-yl)-N~2~- (4-{[(propan-2-yl)sulfonyl]methyl}phenyl) quinazoline-2,5-diamine] | 0.405 |
| CCS(=O)(=O)Cc1ccc(Nc2ncc3c(N)c(F)c(-c4cnc5c(c4C)NCCO5)c(Cl)c3n2)cc1 [Compound 2-134] | 57.7 |
| Cc1c(-c2c(F)c(N)c3cnc(Nc4ccc(CS(C)(=O)=O)cc4F)nc3c2Cl)cnc2c1NCCO2 [Compound 2-135, 8-chloro-6-fluoro-N2-(2-fluoro-4-((methylsulfonyl)methyl)phenyl)-7-(8-methyl-2,3-dihydro-1H-pyrido[2,3-b][1,4]oxazin-7-yl)quinazoline-2,5-diamine] | 72.5 |
| Cc1c(-c2cc3nc(Nc4ccc(CS(=O)(=O)C5CC5)cc4)ncc3c(N)c2F)cnc2c1NCCO2 [Compound 2-136] | 0.101 |
| Cc1c(-c2c(F)c(N)c3cnc(Nc4ccc(CS(=O)(=O)C5CC5)cc4)nc3c2Cl)cnc2c1NCCO2 [Compound 2-137, 8-chloro-N2-(4-((cyclopropylsulfonyl)methyl)phenyl)-6-fluoro-7-(8-methyl-2,3-dihydro-1H-pyrido[2,3-b][1,4]oxazin-7-yl)quinazoline-2,5-diamine] | 100 |
| Cc1c(-c2cc3nc(Nc4ccc5c(c4)CCS(=O)(=O)C5)ncc3c(N)c2F)cnc2c1NCCO2 [Compound 2-138, 6-{[5-amino-6-fluoro-7-(8-methyl-2,3-dihydro-1H-pyrido[2,3-b][1,4]oxazin-7-yl)quinazolin-2-yl]amino}-3,4-dihydro-2-benzothiopyran-2,2(1H)-dione] | 0.068 |
| CN1CCc2ccc(Nc3ncc4c(N)c(F)c(-c5cncc6[nH]ccc56)cc4n3)cc2C1 [Compound 2-139, 6-fluoro-N~2~-(2-methyl-1,2,3,4-tetrahydroisoquinolin-7-yl)-7-(1H-pyrrolo[2,3-c]pyridin-4-yl)quinazoline-2,5-diamine] | 0.0422 |
| CCS(=O)(=O)Cc1ccc(Nc2ncc3c(N)c(F)c(-c4cnc5c(c4C)NCCO5)c(Cl)c3n2)cc1 [Compound 2-140, 8-chloro-N~2~-{4-[(ethylsulfonyl)methyl]phenyl}-6-fluoro-7-(8-methyl-2,3-dihydro-1H-pyrido[2,3-b][1,4]oxazin-7-yl)quinazoline-2,5-diamine] | 0.121 |
| Cc1c(-c2cc3nc(Nc4cc5c(cn4)CCN(C)C5)ncc3c(N)c2F)cnc2c1NCCO2 [Compound 2-142, 6-fluoro-7-(8-methyl-2,3-dihydro-1H-pyrido[2,3-b][1,4]oxazin-7-yl)-N~2~- (6-methyl-5,6,7,8-tetrahydro-2,6-naphthyridin-3-yl)quinazoline-2,5-diamine] | 1.23 |
| CCS(=O)(=O)Cc1ccc(Nc2ncc3c(N)c(F)c(-c4cnc5c(c4C)NCCO5)cc3n2)c(F)c1 [Compound 2-143, N~2~-{4-[(ethylsulfonyl)methyl]-2-fluorophenyl}-6-fluoro-7-(8-methyl-2,3-dihydro-1H-pyrido[2,3-b][1,4]oxazin-7-yl)quinazoline-2,5-diamine] | 0.0888 |
| CCS(=O)(=O)Cc1ccc(Nc2ncc3c(N)c(F)c(-c4cnc5c(c4C)NCC(C)(C)O5)cc3n2)c(F)c1 [Compound 2-144, N~2~-{4-[(ethylsulfonyl)methyl]-2-fluorophenyl}-6-fluoro-7-(3,3,8-trimethyl-2,3-dihydro-1H-pyrido[2,3-b][1,4]oxazin-7-yl)quinazoline-2,5-diamine] | 0.232 |
| Cc1c(-c2cc3nc(Nc4ccc(C5(S(C)(=O)=O)CC5)cc4)ncc3c(N)c2F)cnc2c1NCCO2 [Compound 2-148, 6-fluoro-N~2~-{4-[1-(methanesulfonyl)cyclo-propyl]phenyl}-7-(8-methyl-2,3-dihydro-1H-pyrido[2,3-b][1,4]oxazin-7-yl)quinazoline-2,5-diamine] | 0.0831 |
| Cc1c(-c2cc3nc(Nc4ccc(CS(=O)(=O)CC(F)(F)F)cc4)ncc3c(N)c2F)cnc2c1NCCO2 [Compound 2-149, 6-fluoro-7-(8-methyl-2,3-dihydro-1H-pyrido[2,3-b][1,4]oxazin-7-yl)-N~2~- {4-[(2,2,2-trifluoroethanesulfonyl)methyl]phenyl}quinazoline-2,5-diamine] | 0.194 |
| Cc1c(-c2cc3nc(Nc4ccc5c(c4)CN(C)CC5(C)C)ncc3c(N)c2F)cnc2c1NCCO2 [Compound 2-150, 6-fluoro-7-(8-methyl-2,3-dihydro-1H-pyrido[2,3-b][1,4]oxazin-7-yl)-N~2~- (2,4,4-trimethyl-1,2,3,4-tetrahydroisoquinolin-7-yl)quinazoline-2,5-diamine] | 0.0614 |
| CN1Cc2cc(Nc3ncc4c(N)c(F)c(-c5cnc6c(c5)NCCO6)cc4n3)ccc2C2(CC2)C1 [Compound 2-151, 7-(2,3-dihydro-1H-pyrido[2,3-b][1,4]oxazin-7-yl)-6-fluoro-N~2~-(2′-methyl-2′,3′-dihydro-1′H-spiro[cyclopropane-1,4′-isoquinolin]-7′-yl)quinazoline-2,5-diamine] | 0.267 |
| CN1Cc2cc(Nc3ncc4c(N)c(F)c(-c5cnc6c(c5Cl)NCCO6)cc4n3)ccc2C2(CC2)C1 [Compound 2-152, 7-(8-chloro-2,3-dihydro-1H-pyrido[2,3-b][1,4]oxazin-7-yl)-6-fluoro-N~2~-(2′-methyl-2′,3′-dihydro-1′H-spiro[cyclopropane-1,4′-isoquinolin]-7′-yl)quinazoline-2,5-diamine] | 0.0714 |
| Cc1c(N)cncc1-c1cc2nc(Nc3ccc4c(c3)CN(C)CC43CC3)ncc2c(N)c1F [Compound 2-153, 7-(5-amino-4-methylpyridin-3-yl)-6-fluoro-N~2~-(2′-methyl-2′,3′-dihydro-1′H-spiro[cyclopropane-1,4′-isoquinolin]-7′-yl)quinazoline-2,5-diamine] | 0.0471 |
| Cc1c(-c2cc3nc(Nc4ccc5c(c4)CN(C)CC5(F)F)ncc3c(N)c2F)cnc2c1NCCO2 [Compound 2-154, N~2~-(4,4-difluoro-2-methyl-1,2,3,4-tetrahydroisoquinolin-7-yl)-6-fluoro-7-(8-methyl-2,3-dihydro-1H-pyrido[2,3-b][1,4]oxazin-7-yl)quinazoline-2,5-diamine] | 0.515 |
| Cc1c(-c2cc3nc(Nc4ccc(CS(C)(=O)=O)cc4F)ncc3c(N)c2F)cnc2c1NCCO2 [Compound 2-155, 6-fluoro-N~2~-{2-fluoro-4-[(methylsulfonyl)methyl]phenyl}-7-(8-methyl-2,3-dihydro-1H-pyrido[2,3-b][1,4]oxazin-7-yl)quinazoline-2,5-diamine] | 0.0647 |
